# Structures can show the parent of a compound that is named as a salt.
# Biological target: T1, ACC1 from rat liver (Rattus norvegicus, UniProt P11497)
# T1 construct: The livers (for ACC1 preparation) or skeletal muscle tissue (for ACC2 preparation) are removed; from tissue; host or cells: liver of male CD rats (fasted, then fed a high sucrose diet)
# Experiment: Direct inhibition of ACC1 activity (14C-bicarbonate incorporation)
# Assay type: biochemical
# Conditions: ACC1 from rat liver
# Outline: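 ACC1 partially purified from livers of fasted/sucrose-refed male rats by PEG and ammonium sulfate fractionation, then preincubated 30 min at 37°C with 10 mM citrate and 1.0 mM MgCl2. Reaction ran 7 min at 37°C, stopped with HCl; acid-stable radioactivity counted by scintillation; HCl-first tubes served as blanks.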
row,SMILES,IC50
1,"Cc1cc2c(cc1Cl)C(=O)CC1(CCN(C(=O)c3ccc4[nH]nnc4c3)CC1)O2 [Ex. L40, 1′-(1H-1,2,3-benzotriazol-5-ylcarbonyl)-6-chloro-7-methylspiro[chromene-2,4′-piperidin]-4(3H)-one]",4.86 µM
2,"Cc1cc2c(cc1C)C(=O)CC1(CCN(C(=O)c3ccc4c(c3)nnn4C)CC1)O2 [Ex. L41, 6,7-dimethyl-1′-[(1-methyl-1H-1,2,3-benzotriazol-5-yl)carbonyl]spiro[chromene-2,4′-piperidin]-4(3H)-one]",< 3 µM
3,"CC(C)n1nnc2cc(C(=O)N3CCC4(CC3)CC(=O)c3cc(Cl)ccc3O4)ccc21 [Ex. L42, 6-chloro-1′-[(1-isopropyl-1H-1,2,3-benzotriazol-5-yl)carbonyl]spiro[chromene-2,4′-piperidin]-4(3H)-one]",> 1 µM
4,"Cc1cc2c(cc1C)C(=O)CC1(CCN(C(=O)c3ccc4ncccc4c3)CC1)O2 [Ex. L43, 6,7-dimethyl-1′-(quinolin-6-ylcarbonyl)spiro[chromene-2,4′-piperidin]-4(3H)-one trifluoroacetic acid salt]",0.121 µM
5,"Cc1cc2c(cc1C)C(=O)CC1(CCN(C(=O)c3ccc4nccnc4c3)CC1)O2 [Ex. L45, 6,7-dimethyl-1′-(quinoxalin-6-ylcarbonyl)spiro[chromene-2,4′-piperidin]-4(3H)-one]",< 3 µM
6,"Cc1cc2c(cc1Cl)C(=O)CC1(CCN(C(=O)c3ccc4ocnc4c3)CC1)O2 [Ex. L46, 1′-(1,3-benzoxazol-5-ylcarbonyl)-6-chloro-7-methylspiro[chromene-2,4′-piperidin]-4(3H)-one]",0.369 µM

# Same assay, conditions: Table of Examples M1-M36
row,SMILES,IC50
1,"COc1cc(C)cc2c1C(=O)CC1(CCN(C(=O)c3cccc(-c4cc[nH]n4)c3)CC1)O2 [Ex. M1, 5-methoxy-7-methyl-1′-[3-(1H-pyrazol-3-yl)benzoyl]spiro[chromene-2,4′-piperidin]-4(3H)-one]",0.0375 µM
2,"Cc1cc2c(cc1C)C(=O)CC1(CCN(C(=O)c3cccc(-c4cc[nH]n4)c3)CC1)O2 [Ex. M2, 6,7-dimethyl-1′-[3-(1H-pyrazol-3-yl)benzoyl]spiro[chromene-2,4′-piperidin]-4(3H)-one]",0.0736 µM
3,"CNC(=O)c1ccc2c(c1)C(=O)CC1(CCN(C(=O)c3cccc(-c4cc[nH]n4)c3)CC1)O2 [Ex. M4, N-methyl-4-oxo-1′-[3-(1H-pyrazol-3-yl)benzoyl]-3,4-dihydrospiro[chromene-2,4′-piperidine]-6-carboxamide]",0.11 µM
4,"NC(=O)c1ccc2c(c1)C(=O)CC1(CCN(C(=O)c3cccc(-c4cc[nH]n4)c3)CC1)O2 [Ex. M5, 4-oxo-1′-[3-(1H-pyrazol-3-yl)benzoyl]-3,4-dihydrospiro[chromene-2,4′-piperidine]-6-carboxamide]",0.118 µM
5,"COc1ccc2c(c1)C(=O)CC1(CCN(C(=O)c3cccc(-c4cc[nH]n4)c3)CC1)O2 [Ex. M6, 6-methoxy-1′-[3-(1H-pyrazol-3-yl)benzoyl]spiro[chromene-2,4′-piperidin]-4(3H)-one]",0.129 µM
6,"Cc1cc2c(cc1Cl)OC1(CCN(C(=O)c3cccc(-c4cc[nH]n4)c3)CC1)CC2=O [Ex. M7, 7-chloro-6-methyl-1′-[3-(1H-pyrazol-3-yl)benzoyl]spiro[chromene-2,4′-piperidin]-4(3H)-one]",0.14 µM
7,"O=C1CC2(CCN(C(=O)c3cccc(-c4cc[nH]n4)c3)CC2)Oc2cc(Cl)c(Cl)cc21 [Ex. M8, 6,7-dichloro-1′-[3-(1H-pyrazol-3-yl)benzoyl]spiro[chromene-2,4′-piperidin]-4(3H)-one]",0.178 µM
8,"O=C1CC2(CCN(C(=O)c3cccc(-c4cc[nH]n4)c3)CC2)Oc2ccc(C(=O)N3CCCC3)cc21 [Ex. M9, 1′-[3-(1H-pyrazol-3-yl)benzoyl]-6-(pyrrolidin-1-ylcarbonyl)spiro[chromene-2,4′-piperidin]-4(3H)-one]",0.179 µM
9,"Cc1cc2c(cc1Br)C(=O)CC1(CCN(C(=O)c3cccc(-c4cc[nH]n4)c3)CC1)O2 [Ex. M10, 6-bromo-7-methyl-1′-[3-(1H-pyrazol-3-yl)benzoyl]spiro[chromene-2,4′-piperidin]-4(3H)-one]",0.201 µM

# Source: US20090270435A1 (priority 2006, published 2009)
